{"source": "paper PMC5078040", "about": "(Oncotarget, 2016)", "key": {"[1]": {"target": "T1, CDK11 (Homo sapiens, UniProt Q9BWU1)", "T1 construct": "purchased DiscoveRx KINOMEscan", "test": "KinomeScan", "format": "binding", "conditions": "1uM"}, "[2]": {"target": "T2, SRPK2 (Homo sapiens, UniProt P78362)", "T2 construct": "purchased DiscoveRx KINOMEscan", "test": "KinomeScan", "format": "binding", "conditions": "1uM"}, "[3]": {"target": "T3, JAK1(JH2domain-pseudokinase) (Homo sapiens, UniProt P23458)", "T3 construct": "JAK1(JH2domain-pseudokinase); purchased DiscoveRx KINOMEscan", "T3 sequence (P23458 583-855 limits assumed)": "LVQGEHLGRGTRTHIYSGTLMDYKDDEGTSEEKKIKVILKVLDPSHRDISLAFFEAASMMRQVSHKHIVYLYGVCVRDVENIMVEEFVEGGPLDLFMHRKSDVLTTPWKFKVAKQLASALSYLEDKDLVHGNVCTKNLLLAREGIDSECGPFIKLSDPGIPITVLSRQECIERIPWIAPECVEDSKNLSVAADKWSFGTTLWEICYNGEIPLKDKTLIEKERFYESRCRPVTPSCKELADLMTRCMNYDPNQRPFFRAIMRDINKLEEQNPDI", "test": "KinomeScan", "format": "binding", "conditions": "1uM"}, "[4]": {"target": "T4, BIKE (Homo sapiens, UniProt Q9NSY1)", "T4 construct": "purchased DiscoveRx KINOMEscan", "test": "KinomeScan", "format": "binding", "conditions": "1uM"}, "[5]": {"tested_on": "NF-kB P65 phosphorylation", "test": "Signaling pathway effect examination (western blotting)", "format": "cell-based, human", "conditions": "any of the tested cell lines", "description": "(§1) The cells were collected and lysed, and cell lysates were analyzed by western blotting."}, "[6]": {"tested_on": "4EBP1 phosphorylation", "test": "Signaling pathway effect examination (western blotting)", "format": "cell-based, human", "conditions": "all of the cell lines", "description": "as §1"}, "[7]": {"tested_on": "phosphorylation of PRAS40 GSK3b and FOXO1", "test": "Signaling pathway effect examination (western blotting)", "format": "cell-based, human", "conditions": "B-cell malignant cell lines", "description": "as §1"}, "[8]": {"tested_on": "phosphorylation of Akt at both Thr308 and Ser473", "test": "Signaling pathway effect examination (western blotting)", "format": "cell-based, human", "conditions": "1 hour", "description": "as §1"}, "[9]": {"tested_on": "Erk phosphorylation", "test": "Signaling pathway effect examination (western blotting)", "format": "cell-based, human", "description": "as §1"}, "[10]": {"target": "T5, TLK1 (Homo sapiens, UniProt Q9UKI8)", "T5 construct": "purchased DiscoveRx KINOMEscan", "test": "KinomeScan", "format": "binding", "conditions": "1uM"}, "[11]": {"target": "T6, HPK1 (Homo sapiens, UniProt Q92918)", "T6 construct": "purchased DiscoveRx KINOMEscan", "test": "KinomeScan", "format": "binding", "conditions": "1uM"}, "[12]": {"target": "T7, CDKL1 (Homo sapiens, UniProt Q00532)", "T7 construct": "purchased DiscoveRx KINOMEscan", "test": "KinomeScan", "format": "binding", "conditions": "1uM"}, "[13]": {"target": "T8, PIK3C2B (Homo sapiens, UniProt O00750)", "T8 construct": "purchased Invitrogen", "test": "KinomeScan", "format": "binding", "conditions": "1uM"}, "[14]": {"target": "T9, PI4KB (Homo sapiens, UniProt Q9UBF8)", "T9 construct": "purchased Invitrogen", "test": "ADP-glo biochemical assay"}, "[15]": {"target": "T10, EPHA8 (Homo sapiens, UniProt P29322)", "T10 construct": "purchased DiscoveRx KINOMEscan", "T10 sequence (P29322 28-1005)": "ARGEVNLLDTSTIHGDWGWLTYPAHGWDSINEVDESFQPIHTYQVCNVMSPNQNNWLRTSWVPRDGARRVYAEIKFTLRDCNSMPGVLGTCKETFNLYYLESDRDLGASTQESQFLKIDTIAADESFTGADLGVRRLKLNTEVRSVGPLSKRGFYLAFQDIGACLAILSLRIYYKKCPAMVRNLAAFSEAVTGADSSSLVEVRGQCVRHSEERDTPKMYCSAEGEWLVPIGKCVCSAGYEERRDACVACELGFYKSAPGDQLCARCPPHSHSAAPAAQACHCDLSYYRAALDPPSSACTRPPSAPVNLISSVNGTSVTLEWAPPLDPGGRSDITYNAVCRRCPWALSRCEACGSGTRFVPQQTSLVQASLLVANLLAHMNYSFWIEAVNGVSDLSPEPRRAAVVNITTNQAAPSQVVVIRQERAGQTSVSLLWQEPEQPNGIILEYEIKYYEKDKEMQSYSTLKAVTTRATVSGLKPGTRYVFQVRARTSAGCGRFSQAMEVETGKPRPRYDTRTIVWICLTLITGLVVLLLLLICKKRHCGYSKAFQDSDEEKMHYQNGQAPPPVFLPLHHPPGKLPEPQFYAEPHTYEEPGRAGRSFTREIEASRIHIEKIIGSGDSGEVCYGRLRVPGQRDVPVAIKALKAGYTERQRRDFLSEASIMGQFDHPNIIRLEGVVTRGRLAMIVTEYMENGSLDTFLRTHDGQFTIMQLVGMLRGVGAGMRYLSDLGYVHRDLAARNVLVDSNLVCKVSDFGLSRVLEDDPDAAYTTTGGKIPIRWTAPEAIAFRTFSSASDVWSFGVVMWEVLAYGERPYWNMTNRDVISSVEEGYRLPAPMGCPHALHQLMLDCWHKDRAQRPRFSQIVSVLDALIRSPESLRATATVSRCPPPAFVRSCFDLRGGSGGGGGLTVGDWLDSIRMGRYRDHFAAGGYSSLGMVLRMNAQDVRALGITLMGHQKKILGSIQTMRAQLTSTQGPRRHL", "test": "KinomeScan", "format": "binding", "conditions": "1uM"}, "[16]": {"target": "T11, MAK (Homo sapiens, UniProt P20794)", "T11 construct": "purchased DiscoveRx KINOMEscan", "test": "KinomeScan", "format": "binding", "conditions": "1uM"}, "[17]": {"target": "T12, FGFR2 (Homo sapiens, UniProt P21802)", "T12 construct": "purchased DiscoveRx KINOMEscan", "T12 sequence (P21802 22-821)": "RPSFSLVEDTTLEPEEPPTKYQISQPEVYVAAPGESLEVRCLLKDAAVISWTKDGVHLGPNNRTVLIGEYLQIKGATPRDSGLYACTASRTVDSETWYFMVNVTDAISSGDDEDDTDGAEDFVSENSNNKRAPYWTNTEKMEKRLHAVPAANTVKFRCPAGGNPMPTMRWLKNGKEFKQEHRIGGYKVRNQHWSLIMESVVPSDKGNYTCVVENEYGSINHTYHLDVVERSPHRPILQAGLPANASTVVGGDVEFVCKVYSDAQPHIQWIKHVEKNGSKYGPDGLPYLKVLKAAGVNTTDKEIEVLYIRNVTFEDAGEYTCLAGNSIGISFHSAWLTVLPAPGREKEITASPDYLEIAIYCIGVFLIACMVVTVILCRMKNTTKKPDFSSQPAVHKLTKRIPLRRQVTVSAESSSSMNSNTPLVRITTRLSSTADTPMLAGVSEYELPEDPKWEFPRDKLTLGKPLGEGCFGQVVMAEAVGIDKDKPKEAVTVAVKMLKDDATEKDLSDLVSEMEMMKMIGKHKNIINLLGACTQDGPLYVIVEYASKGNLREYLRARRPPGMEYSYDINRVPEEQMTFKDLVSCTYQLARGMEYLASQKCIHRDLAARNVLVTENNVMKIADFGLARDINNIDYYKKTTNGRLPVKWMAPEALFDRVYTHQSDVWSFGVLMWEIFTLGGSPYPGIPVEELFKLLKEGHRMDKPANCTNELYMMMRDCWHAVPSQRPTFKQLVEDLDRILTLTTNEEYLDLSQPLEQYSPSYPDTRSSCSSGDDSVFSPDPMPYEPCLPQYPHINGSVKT", "test": "KinomeScan", "format": "binding", "conditions": "1uM"}, "[18]": {"target": "T13, PAK1 (Homo sapiens, UniProt Q13153)", "T13 construct": "purchased DiscoveRx KINOMEscan", "test": "KinomeScan", "format": "binding", "conditions": "1uM"}, "[19]": {"target": "T14, CLK2 (Homo sapiens, UniProt P49760)", "T14 construct": "purchased DiscoveRx KINOMEscan", "test": "KinomeScan", "format": "binding", "conditions": "1uM"}, "[20]": {"target": "T15, HIPK1 (Homo sapiens, UniProt Q86Z02)", "T15 construct": "purchased DiscoveRx KINOMEscan", "test": "KinomeScan", "format": "binding", "conditions": "1uM"}, "[21]": {"target": "T16, IKK-alpha (Homo sapiens, UniProt O15111)", "T16 construct": "purchased DiscoveRx KINOMEscan", "test": "KinomeScan", "format": "binding", "conditions": "1uM"}, "[22]": {"target": "T17, EPHA7 (Homo sapiens, UniProt Q15375)", "T17 construct": "purchased DiscoveRx KINOMEscan", "T17 sequence (Q15375 28-998)": "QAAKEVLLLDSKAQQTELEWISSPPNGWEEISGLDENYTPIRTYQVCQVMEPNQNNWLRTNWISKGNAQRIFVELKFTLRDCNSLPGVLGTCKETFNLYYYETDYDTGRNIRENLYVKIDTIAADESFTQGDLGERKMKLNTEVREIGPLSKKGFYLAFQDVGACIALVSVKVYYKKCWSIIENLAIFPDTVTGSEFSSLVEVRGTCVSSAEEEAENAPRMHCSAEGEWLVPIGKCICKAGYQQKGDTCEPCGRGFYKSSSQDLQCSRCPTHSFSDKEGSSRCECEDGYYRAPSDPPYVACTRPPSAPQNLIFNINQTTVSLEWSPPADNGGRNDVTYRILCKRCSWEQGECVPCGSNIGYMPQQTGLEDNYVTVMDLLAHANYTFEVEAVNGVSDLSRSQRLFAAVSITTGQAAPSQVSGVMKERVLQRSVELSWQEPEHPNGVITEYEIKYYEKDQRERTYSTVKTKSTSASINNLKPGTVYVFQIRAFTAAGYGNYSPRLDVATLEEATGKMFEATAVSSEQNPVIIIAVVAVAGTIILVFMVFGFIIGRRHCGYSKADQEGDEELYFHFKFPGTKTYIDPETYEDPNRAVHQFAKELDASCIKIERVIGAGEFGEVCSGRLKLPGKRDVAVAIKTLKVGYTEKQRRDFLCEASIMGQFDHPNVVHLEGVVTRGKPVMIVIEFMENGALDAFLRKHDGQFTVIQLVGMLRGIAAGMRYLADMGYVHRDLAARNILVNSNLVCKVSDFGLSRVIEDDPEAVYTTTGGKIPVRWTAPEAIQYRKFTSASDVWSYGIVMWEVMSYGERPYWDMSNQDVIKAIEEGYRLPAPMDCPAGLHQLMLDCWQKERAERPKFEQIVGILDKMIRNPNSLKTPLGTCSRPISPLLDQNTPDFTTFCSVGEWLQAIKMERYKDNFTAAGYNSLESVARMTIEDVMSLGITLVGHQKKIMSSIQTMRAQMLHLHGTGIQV", "test": "KinomeScan", "format": "binding", "conditions": "1uM"}, "[23]": {"target": "T18, TEC (Homo sapiens, UniProt P42680)", "T18 construct": "purchased DiscoveRx KINOMEscan", "test": "KinomeScan", "format": "binding", "conditions": "1uM"}, "[24]": {"target": "T19, STK39 (Homo sapiens, UniProt Q9UEW8)", "T19 construct": "purchased DiscoveRx KINOMEscan", "test": "KinomeScan", "format": "binding", "conditions": "1uM"}, "[25]": {"target": "T20, CDK4-cyclinD1 (Homo sapiens, UniProt P11802)", "T20 construct": "purchased DiscoveRx KINOMEscan", "test": "KinomeScan", "format": "binding", "conditions": "1uM"}, "[26]": {"target": "T21, CSF1R-autoinhibited (Homo sapiens, UniProt P07333)", "T21 construct": "purchased DiscoveRx KINOMEscan", "T21 sequence (P07333 539-972 limits assumed)": "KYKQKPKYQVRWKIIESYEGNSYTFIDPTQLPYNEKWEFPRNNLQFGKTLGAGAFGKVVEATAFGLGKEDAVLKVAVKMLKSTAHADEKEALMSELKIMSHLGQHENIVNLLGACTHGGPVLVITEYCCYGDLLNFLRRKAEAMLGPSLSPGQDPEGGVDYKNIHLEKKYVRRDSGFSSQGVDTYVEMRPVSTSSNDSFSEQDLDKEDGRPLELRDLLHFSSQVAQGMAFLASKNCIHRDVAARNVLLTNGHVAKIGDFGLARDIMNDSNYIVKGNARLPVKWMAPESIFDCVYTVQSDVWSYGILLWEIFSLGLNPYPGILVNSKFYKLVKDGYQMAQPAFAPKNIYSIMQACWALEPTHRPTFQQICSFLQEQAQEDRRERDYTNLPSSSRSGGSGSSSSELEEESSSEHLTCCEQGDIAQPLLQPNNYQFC", "test": "KinomeScan", "format": "binding", "conditions": "1uM"}, "[27]": {"target": "T22, CDK4-cyclinD3 (Homo sapiens, UniProt P11802)", "T22 construct": "purchased DiscoveRx KINOMEscan", "test": "KinomeScan", "format": "binding", "conditions": "1uM"}, "[28]": {"target": "T23, ZAK (Homo sapiens, UniProt Q9NYL2)", "T23 construct": "purchased DiscoveRx KINOMEscan", "test": "KinomeScan", "format": "binding", "conditions": "1uM"}, "[29]": {"target": "T24, GAK (Homo sapiens, UniProt O14976)", "T24 construct": "purchased DiscoveRx KINOMEscan", "test": "KinomeScan", "format": "binding", "conditions": "1uM"}, "[30]": {"target": "T25, CASK (Homo sapiens, UniProt O14936)", "T25 construct": "purchased DiscoveRx KINOMEscan", "test": "KinomeScan", "format": "binding", "conditions": "1uM"}, "[31]": {"target": "T26, PLK3 (Homo sapiens, UniProt Q9H4B4)", "T26 construct": "purchased DiscoveRx KINOMEscan", "test": "KinomeScan", "format": "binding", "conditions": "1uM"}, "[32]": {"target": "T27, ABL1(H396P)-nonphosphorylated (Homo sapiens, UniProt P00519, H396P)", "T27 construct": "purchased DiscoveRx KINOMEscan", "test": "KinomeScan", "format": "binding", "conditions": "1uM"}, "[33]": {"target": "T28, EGFR(L858R,T790M) (Homo sapiens, UniProt P00533, L858R/T790M)", "T28 construct": "purchased DiscoveRx KINOMEscan", "test": "KinomeScan", "format": "binding", "conditions": "1uM"}, "[34]": {"target": "T29, ERN1 (Homo sapiens, UniProt O75460)", "T29 construct": "purchased DiscoveRx KINOMEscan", "T29 sequence (O75460 19-977)": "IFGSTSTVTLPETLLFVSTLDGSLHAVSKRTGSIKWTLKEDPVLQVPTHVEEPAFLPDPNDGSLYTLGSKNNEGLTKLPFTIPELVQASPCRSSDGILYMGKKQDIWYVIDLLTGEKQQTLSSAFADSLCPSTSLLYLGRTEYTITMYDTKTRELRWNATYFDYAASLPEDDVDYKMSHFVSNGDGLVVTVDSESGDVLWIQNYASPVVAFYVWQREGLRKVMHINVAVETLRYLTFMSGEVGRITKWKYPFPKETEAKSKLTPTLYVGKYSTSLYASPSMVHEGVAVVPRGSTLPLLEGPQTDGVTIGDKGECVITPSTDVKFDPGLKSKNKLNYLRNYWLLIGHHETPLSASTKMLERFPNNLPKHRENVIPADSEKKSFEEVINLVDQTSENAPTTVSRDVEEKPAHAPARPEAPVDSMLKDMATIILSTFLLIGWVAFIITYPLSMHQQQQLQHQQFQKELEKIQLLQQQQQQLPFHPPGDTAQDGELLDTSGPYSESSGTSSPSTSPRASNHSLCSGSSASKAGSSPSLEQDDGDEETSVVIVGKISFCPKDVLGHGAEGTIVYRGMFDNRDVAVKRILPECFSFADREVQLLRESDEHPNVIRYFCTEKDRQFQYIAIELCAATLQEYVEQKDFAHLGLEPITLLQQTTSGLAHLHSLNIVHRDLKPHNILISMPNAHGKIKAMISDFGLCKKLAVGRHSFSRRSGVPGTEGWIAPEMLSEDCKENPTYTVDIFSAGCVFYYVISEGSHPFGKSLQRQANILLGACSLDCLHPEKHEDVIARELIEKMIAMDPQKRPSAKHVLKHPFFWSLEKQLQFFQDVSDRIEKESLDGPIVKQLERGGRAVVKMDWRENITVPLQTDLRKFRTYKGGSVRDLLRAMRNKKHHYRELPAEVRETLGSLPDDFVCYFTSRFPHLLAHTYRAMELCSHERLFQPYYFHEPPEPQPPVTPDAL", "test": "KinomeScan", "format": "binding", "conditions": "1uM"}, "[35]": {"target": "T30, ZAP70 (Homo sapiens, UniProt P43403)", "T30 construct": "purchased DiscoveRx KINOMEscan", "test": "KinomeScan", "format": "binding", "conditions": "1uM"}, "[36]": {"target": "T31, CDK7 (Homo sapiens, UniProt P50613)", "T31 construct": "purchased DiscoveRx KINOMEscan", "test": "KinomeScan", "format": "binding", "conditions": "1uM"}, "[37]": {"target": "T32, PRKCH (Homo sapiens, UniProt P24723)", "T32 construct": "purchased DiscoveRx KINOMEscan", "test": "KinomeScan", "format": "binding", "conditions": "1uM"}, "[38]": {"target": "T33, MAP3K1 (Homo sapiens, UniProt Q13233)", "T33 construct": "purchased DiscoveRx KINOMEscan", "test": "KinomeScan", "format": "binding", "conditions": "1uM"}, "[39]": {"target": "T34, CDK5 (Homo sapiens, UniProt Q00535)", "T34 construct": "purchased DiscoveRx KINOMEscan", "test": "KinomeScan", "format": "binding", "conditions": "1uM"}, "[40]": {"target": "T35, EGFR (Homo sapiens, UniProt P00533)", "T35 construct": "purchased DiscoveRx KINOMEscan", "test": "KinomeScan", "format": "binding", "conditions": "1uM"}, "[41]": {"target": "T36, FER (Homo sapiens, UniProt P16591)", "T36 construct": "purchased DiscoveRx KINOMEscan", "test": "KinomeScan", "format": "binding", "conditions": "1uM"}, "[42]": {"target": "T37, WNK1 (Homo sapiens, UniProt Q9H4A3)", "T37 construct": "purchased DiscoveRx KINOMEscan", "test": "KinomeScan", "format": "binding", "conditions": "1uM"}}, "data": [{"smiles": "Cc1nc(NC(=O)[C@@H](N)C(C)C)sc1-c1cnc(Cl)c(NS(=O)(=O)c2ccccc2)c1", "note": "[PI3KD-IN-015]", "values": [{"measurement": "KinomeScan CDK11", "setting": "[1]", "result": 100}, {"measurement": "KinomeScan SRPK2", "setting": "[2]", "result": 100}, {"measurement": "KinomeScan JAK1(JH2domain-pseudokinase)", "setting": "[3]", "result": 100}, {"measurement": "KinomeScan BIKE", "setting": "[4]", "result": 73}, {"measurement": "NF-kB P65 phosphorylation", "setting": "[5]", "result": "not inhibited"}, {"measurement": "4EBP1 phosphorylation", "setting": "[6]", "result": "not changed at all"}, {"measurement": "phosphorylation of Akt substrates PRAS40 GSK3b and FOXO1", "setting": "[7]", "result": "decreased phosphorylation"}, {"measurement": "EC50", "setting": "[8]; Homo sapiens, CLL cell, HS505T (CLL) cells", "result": "< 1000", "unit": "nM"}, {"measurement": "EC50", "setting": "[8]; Homo sapiens, HT (B-NHL) cells", "result": "< 1000", "unit": "nM"}, {"measurement": "EC50", "setting": "[8]; Homo sapiens, MOLM-13 (AML) cells", "result": "< 1000", "unit": "nM"}, {"measurement": "EC50", "setting": "[8]; MEC-1 (CLL) cells", "result": "< 1000", "unit": "nM"}, {"measurement": "EC50", "setting": "[8]; MEC-2 (CLL) cells", "result": "< 1000", "unit": "nM"}, {"measurement": "EC50", "setting": "[8]; Namalwa (Burkitt Lymphoma) cells", "result": "< 1000", "unit": "nM"}, {"measurement": "Erk phosphorylation", "setting": "[9]; MOLM13 and HT cells", "result": "not in MOLM13 and HT"}, {"measurement": "Erk phosphorylation", "setting": "[9]; Namalwa, MEC-1, MEC-2 and HS505T cells", "result": "reduced"}, {"measurement": "KinomeScan TLK1", "setting": "[10]", "result": 79}, {"measurement": "KinomeScan HPK1", "setting": "[11]", "result": 87}, {"measurement": "KinomeScan CDKL1", "setting": "[12]", "result": 100}, {"measurement": "KinomeScan PIK3C2B", "setting": "[13]", "result": 2.2}, {"measurement": "IC50", "setting": "[14]", "result": 172, "unit": "nM"}, {"measurement": "KinomeScan EPHA8", "setting": "[15]", "result": 100}, {"measurement": "KinomeScan MAK", "setting": "[16]", "result": 72}, {"measurement": "KinomeScan FGFR2", "setting": "[17]", "result": 100}, {"measurement": "KinomeScan PAK1", "setting": "[18]", "result": 100}, {"measurement": "KinomeScan CLK2", "setting": "[19]", "result": 90}, {"measurement": "KinomeScan HIPK1", "setting": "[20]", "result": 96}, {"measurement": "KinomeScan IKK-alpha", "setting": "[21]", "result": 95}, {"measurement": "KinomeScan EPHA7", "setting": "[22]", "result": 100}, {"measurement": "KinomeScan TEC", "setting": "[23]", "result": 100}, {"measurement": "KinomeScan STK39", "setting": "[24]", "result": 100}, {"measurement": "KinomeScan CDK4-cyclinD1", "setting": "[25]", "result": 90}, {"measurement": "KinomeScan CSF1R-autoinhibited", "setting": "[26]", "result": 100}, {"measurement": "KinomeScan CDK4-cyclinD3", "setting": "[27]", "result": 100}, {"measurement": "KinomeScan ZAK", "setting": "[28]", "result": 100}, {"measurement": "KinomeScan GAK", "setting": "[29]", "result": 100}, {"measurement": "KinomeScan CASK", "setting": "[30]", "result": 95}, {"measurement": "KinomeScan PLK3", "setting": "[31]", "result": 76}, {"measurement": "KinomeScan ABL1(H396P)-nonphosphorylated", "setting": "[32]", "result": 100}, {"measurement": "KinomeScan EGFR(L858R,T790M)", "setting": "[33]", "result": 100}, {"measurement": "KinomeScan ERN1", "setting": "[34]", "result": 92}, {"measurement": "KinomeScan ZAP70", "setting": "[35]", "result": 96}, {"measurement": "KinomeScan CDK7", "setting": "[36]", "result": 100}, {"measurement": "KinomeScan PRKCH", "setting": "[37]", "result": 100}, {"measurement": "KinomeScan MAP3K1", "setting": "[38]", "result": 96}, {"measurement": "KinomeScan CDK5", "setting": "[39]", "result": 100}, {"measurement": "KinomeScan EGFR", "setting": "[40]", "result": 100}, {"measurement": "KinomeScan FER", "setting": "[41]", "result": 89}, {"measurement": "KinomeScan WNK1", "setting": "[42]", "result": 100}]}]}
